Where a name gives a salt, the structure may show the parent alone.
Molecular target: T1, human cloned 5-HT6 receptors (Homo sapiens, UniProt P50406)
T1 construct: expressed in transfected cells; host or cells: HeLa cells
Assay: 5-HT6 binding affinity, [3H]-LSD displacement
Conditions: membranes of Hela cells expressing human cloned 5-HT6 receptors; [3H]-LSD 3.0 nM; 120 minutes at room temperature
Method: The affinity of test compounds for the serotonin 5-HT6 receptor was evaluated in the following manner. Cultured Hela cells expressing human cloned 5-HT6 receptors were harvested and centrifuged at low speed (1,000×g) for 10.0 minutes to remove the culture media. The harvested cells were suspended in half volume of fresh physiological phosphate buffered saline solution and recentrifuged at the same speed. This operation was repeated. The collected cells were then homogenized in ten volumes of 50 mM Tris.HCl (pH 7.4) and 0.5 mM EDTA. The homogenate was centrifuged at 40,000×g for 30.0 min and the precipitate was collected. The obtained pellet was resuspended in 10 volumes of Tris.HCl buffer and recentrifuged at the same speed. The final pellet was suspended in a small volume of Tris.HCl buffer and the tissue protein content was determined in aliquots of 10-25 μl volumes. […] The volume of the suspended cell membranes was adjusted to give a tissue protein concentration of 1.0 mg/ml of suspension. The prepared membrane suspension (10 times concentrated) was aliquoted in 1.0 ml volumes and stored at −70° C. until used in subsequent binding experiments.
The bound complex caught on the filter disk was allowed to air dry and the radioactivity is measured in a Packard TopCount® equipped with six photomultiplier detectors, after the addition of 40.0 μl Microscint®-20 scintillant to each shallow well. The unifilter plate was heat-sealed and counted in a PackardTopCount® with a tritium efficiency of 31.0%.
Specific binding to the 5-HT6 receptor was defined as the total radioactivity bound less the amount bound in the presence of 10.0 μM unlabeled methiothepin. Binding in the presence of varying concentrations of test compound was expressed as a percentage of specific binding in the absence of test compound. The results were plotted as log % bound versus log concentration of test compound. […] A linear regression line of data points was plotted, from which the IC50 value is determined and the Ki value is determined based upon the following equation: Ki=IC50/(1+L/KD) where L was the concentration of the radioactive ligand used and KD is the dissociation constant of the ligand for the receptor, both expressed in nM.

T1 sequence (P50406 whole entry): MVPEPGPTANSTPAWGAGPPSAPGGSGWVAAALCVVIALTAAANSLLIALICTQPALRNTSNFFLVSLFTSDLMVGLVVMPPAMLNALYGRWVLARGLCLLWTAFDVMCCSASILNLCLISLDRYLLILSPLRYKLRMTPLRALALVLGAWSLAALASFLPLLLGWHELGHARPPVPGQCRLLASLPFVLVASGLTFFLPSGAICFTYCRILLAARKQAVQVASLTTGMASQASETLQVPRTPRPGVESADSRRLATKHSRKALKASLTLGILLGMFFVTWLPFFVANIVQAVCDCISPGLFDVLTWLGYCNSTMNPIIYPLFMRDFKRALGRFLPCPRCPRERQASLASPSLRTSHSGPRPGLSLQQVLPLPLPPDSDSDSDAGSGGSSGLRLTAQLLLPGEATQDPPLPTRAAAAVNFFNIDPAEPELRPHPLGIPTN

SMILES	Ki
CN(C)CCC(=O)Nc1ccc2c(S(=O)(=O)c3cccc4ccccc34)n[nH]c2c1 [Example 168, 3-Dimethylamino-N-[3-(naphthalene-1-sulfonyl)-1H-indazol-6-yl]-propionamide hydrochloride]	36 to 45 nM
CCN(CC)CCCOc1cccc2c(S(=O)(=O)c3cccc4ccccc34)n[nH]c12 [Example 137]	26 to 35 nM
CNCCCOc1cccc2c(S(=O)(=O)c3cccc4ccccc34)nn(Cc3cccc(Cl)c3)c12 [Example 128]	> 45 nM
CC(N)CNc1ccc2[nH]nc(S(=O)(=O)c3cccc4ccccc34)c2c1 (centres unmarked) [Example 159, N1-[3-(Naphthalene-1-sulfonyl)-1H-indazol-5-yl]-propane-1,2-diamine hydrochloride]	11 to 25 nM
O=C(NCCN1CCCCC1)c1ccc2[nH]nc(S(=O)(=O)c3cccc4ccccc34)c2c1 [Example 152, 3-(1-Naphtylsulfonyl)-N-(2-piperidin-1-ylethyl)-1H-indazole-5-carboxamide]	> 45 nM
CCNCCOc1cccc2c(S(=O)(=O)c3cccc4ccccc34)nn(C)c12 [Example 95]	0.01 to 10 nM
CCN(CC)CCCOc1ccc2[nH]nc(S(=O)(=O)c3cccc4ccccc34)c2c1 [Example 18, Diethyl-{3-[3-(naphthalene-1-sulfonyl)-1H-indazol-5-yloxy]-propyl}-amine]	0.01 to 10 nM
CN(C)CCCCOc1ccc2[nH]nc(S(=O)(=O)c3cccc4ccccc34)c2c1 [Example 64]	0.01 to 10 nM
NCCNCc1ccc2[nH]nc(S(=O)(=O)c3cccc4ccccc34)c2c1 [Example 155, N{[3-(1-Naphthylsulfonyl)-1H-indazol-5yl]methyl}ethane-1.2-diamine]	11 to 25 nM
O=S(=O)(c1cccc2ccccc12)c1n[nH]c2c(OCCCN3CCCCC3)cccc12 [Example 138]	36 to 45 nM
NCCOc1ccc2c(S(=O)(=O)c3cccc4ccccc34)n[nH]c2c1 [Example 146, 2-{[3-(1-Naphtylsulfonyl)-1H-indazol-6-yl]oxy}ethanamine]	11 to 25 nM
O=S(=O)(c1cccc2ccccc12)c1n[nH]c2ccc(OCCCN3CCOCC3)cc12 [Example 25, 5-(3-Morpholin-4-yl-propoxy)-3-(naphthalene-1-sulfonyl)-1H-indazole]	0.01 to 10 nM
CCN(C)CCOc1ccc2c(c1)c(S(=O)(=O)c1cccc3ccccc13)nn2Cc1cccc(Cl)c1 [Example 55, {2-[1-(3-Chloro-benzyl)-3-(naphthalene-1-sulfonyl)-1H-indazol-5-yloxy]-ethyl}-ethyl-methyl-amine]	> 45 nM
CCNCCOc1cccc2c(S(=O)(=O)c3ccccc3)n[nH]c12 [Example 89]	0.01 to 10 nM
CCNCCCOc1cccc2c(S(=O)(=O)c3cccc4ccccc34)n[nH]c12 [Example 135]	36 to 45 nM
CN(C)CCOc1cc(F)cc2c(S(=O)(=O)c3cccc4ccccc34)n[nH]c12 [Example 115]	11 to 25 nM
CNCCOc1cc(F)cc2c(S(=O)(=O)c3cccc4ccccc34)n[nH]c12 [Example 113]	0.01 to 10 nM
NCCOc1cccc2c(S(=O)(=O)c3cccc4ccccc34)n[nH]c12 [Example 76, (2-{[3-(1-naphthylsulfonyl)-1-H-indazol-7-yl]oxy}ethyl)amine]	0.01 to 10 nM
O=S(=O)(c1cccc2ccccc12)c1n[nH]c2ccc(OCCCN3CCCCC3)cc12 [Example 24, 3-(Naphthalene-1-sulfonyl)-5-(3-piperidin-1-yl-propoxy)-1H-indazole]	0.01 to 10 nM
O=S(=O)(c1cccc2ccccc12)c1n[nH]c2ccc(OCCCNC3CC3)cc12 [Example 20, Cyclopropyl-{3-[3-(naphthalene-1-sulfonyl)-1H-indazol-5-yloxy]-propyl}-amine]	0.01 to 10 nM
CN(C)CCCc1ccc2[nH]nc(S(=O)(=O)c3ccccc3)c2c1 [Example 177, N,N-Dimethyl-N-{3-[3-(phenylsulfonyl)-1H-indazol-5-yl]propyl}amine trifluoroacetate]	11 to 25 nM
CCN(C)CCOc1ccc2c(c1)c(S(=O)(=O)c1cccc3ccccc13)nn2Cc1ccccc1 [Example 47, {2-[1-Benzyl-3-(naphthalene-1-sulfonyl)-1H-indazol-5-yloxy]-ethyl}-ethyl-methyl-amine]	26 to 35 nM
O=S(=O)(c1cccc2ccccc12)c1n[nH]c2cc(OCCN3CCCCC3)ccc12 [Example 149]	> 45 nM
NCCCCc1ccc2[nH]nc(S(=O)(=O)c3ccccc3)c2c1 [Example 181, {4-[3-(Phenylsulfonyl)-1H-indazol-5-yl]butyl}amine hydrochloride]	26 to 35 nM

SMILES	Ki
CCN(CC)CCOc1cccc2c(S(=O)(=O)c3ccccc3)n[nH]c12 [Example 90]	0.01 to 10 nM
NCCOc1ccc2[nH]nc(S(=O)(=O)c3cccc4ccccc34)c2c1 [Example 30, 2-[3-(Naphthalene-1-sulfonyl)-1H-indazol-5-yloxy]-ethylamine]	0.01 to 10 nM
CCCCNCCOc1cccc2c(S(=O)(=O)c3ccccc3)nn(Cc3cccc(Cl)c3)c12 [Example 85]	> 45 nM
O=S(=O)(c1cccc2ccccc12)c1n[nH]c2ccc(OCCCNC3CCCC3)cc12 [Example 21, Cyclopentyl-{3-[3-(naphthalene-1-sulfonyl)-1H-indazol-5-yloxy]-propyl}-amine]	0.01 to 10 nM
CCCCNCCCOc1ccc2[nH]nc(S(=O)(=O)c3cccc4ccccc34)c2c1 [Example 19, Butyl-{3-[3-(naphthalene-1-sulfonyl)-1H-indazol-5-yloxy]-propyl}-amine]	0.01 to 10 nM
CN(C)CCOc1ccc2[nH]nc(S(=O)(=O)c3ccccc3)c2c1 [Example 1, [2-(3-Benzenesulfonyl-1H-indazol-5-yloxy)-ethyl]-dimethyl-amine]	11 to 25 nM
O=S(=O)(c1cccc2ccccc12)c1nn(Cc2cccc(Cl)c2)c2c(OCCCN3CCCCC3)cccc12 [Example 132]	26 to 35 nM
CN(C)CCCc1ccc2[nH]nc(S(=O)(=O)c3cccc4ccccc34)c2c1 [Example 182, N,N-Dimethyl-N-{3-[3-(naphthylsulfonyl)-1H-indazol-5-yl]propyl}amine hydrochloride]	0.01 to 10 nM
O=S(=O)(c1ccccc1)c1n[nH]c2ccc(OCCN3CCCC3)cc12 [Example 11, 3-Benzenesulfonyl-5-(2-pyrrolidin-1-yl-ethoxy)-1H-indazole]	0.01 to 10 nM
CNCCOc1cc(F)cc2c(S(=O)(=O)c3cccc4ccccc34)nn(Cc3cccc(Cl)c3)c12 [Example 107, (2-{[1-(3-chlorobenzyl)-5-fluoro-3-(1-naphthylsulfonyl)-1H-indazol-7-yl]oxy}ethyl)methylamine Hydrochloride]	> 45 nM
O=S(=O)(c1cccc2ccccc12)c1n[nH]c2ccc(OCCN3CCOCC3)cc12 [Example 39, 5-(2-Morpholin-4-yl-ethoxy)-3-(naphthalene-1-sulfonyl)-1H-indazole]	11 to 25 nM
COc1cc(OCCN(C)C)c2[nH]nc(S(=O)(=O)c3cccc4ccccc34)c2c1 [Example 125]	11 to 25 nM
NCCOc1cccc2c(S(=O)(=O)c3cccc4ccccc34)nn(Cc3cccc(Cl)c3)c12 [Example 69, (2-{[1-(3-Chlorobenzyl)-3-(1-naphthylsulfonyl)-1-H-indazol-7-yl]oxy}ethyl) amine]	26 to 35 nM
COc1cc(OCCN2CCCCC2)c2[nH]nc(S(=O)(=O)c3cccc4ccccc34)c2c1 [Example 126]	0.01 to 10 nM
CN1CCN(Cc2ccc3[nH]nc(S(=O)(=O)c4cccc5ccccc45)c3c2)CC1 [Example 196]	0.01 to 10 nM
NCCNc1cccc2c(S(=O)(=O)c3cccc4ccccc34)n[nH]c12 [Example 161, N1-[3-(Naphthalene-1-sulfonyl)-1H-indazol-7-yl]-ethane-1,2-diamine dihydrochloride]	11 to 25 nM
O=S(=O)(c1ccccc1)c1n[nH]c2c(CCNC3CC3)cccc12 [Example 172, N-{2-[3-(phenylsulfonyl)-1H-indazol-7-yl]ethyl}cyclopropanamine hydrochloride]	11 to 25 nM
O=S(=O)(c1cccc2ccccc12)c1nn(Cc2cccc(Cl)c2)c2c(OCCN3CCCCC3)cc(F)cc12 [Example 111]	> 45 nM
Cn1nc(S(=O)(=O)c2cccc3ccccc23)c2cc(OCCN3CCCC3)ccc21 [Example 46, 1-Methyl-3-(naphthalene-1-sulfonyl)-5-(2-pyrrolidin-1-yl-ethoxy)-1H-indazole]	0.01 to 10 nM
C[C@H]1CN(Cc2ccc3[nH]nc(S(=O)(=O)c4cccc5ccccc45)c3c2)CCN1 [Example 199]	11 to 25 nM
CNCCOc1cc(OC)cc2c(S(=O)(=O)c3cccc4ccccc34)n[nH]c12 [Example 124]	11 to 25 nM
CN(C)CCCOc1cccc2c(S(=O)(=O)c3cccc4ccccc34)n[nH]c12 [Example 136]	36 to 45 nM
NCCNc1ccc2[nH]nc(S(=O)(=O)c3cccc4ccccc34)c2c1 [Example 157, N1-[3-(Naphthalene-1-sulfonyl)-1H-indazol-5-yl]-ethane-1,2-diamine dihydrochloride]	0.01 to 10 nM

Reference: patent publication US7723329B2, “Substituted-3-sulfonylindazole derivatives as 5-hydroxytryptamine-6 ligands” (Wyeth LLC, priority 2005, dated 2010)
